Test results: patent US3973006A, “Peptide enzyme inhibitors of angiotensin I” (E. R. Squibb & Sons, Inc., priority 1975, dated 1976)

What was measured:
[1] = biological target: angiotensin-converting enzyme (Homo sapiens, UniProt P12821); experiment: Inhibition of angiotensin-converting enzyme (conversion of angiotensin I into angiotensin II), I50 determination; type: biochemical; conditions: for IC50: 0.3 mM angiotensin I, 100 mM potassium phosphate buffer pH 7.5, 30 mM NaCl, 37°, read-out: I50 (concentration of peptide producing a 50% inhibition of angiotensin-converting enzyme) (converted)
angiotensin-converting enzyme, sequence (P12821 30-1306, species assumed): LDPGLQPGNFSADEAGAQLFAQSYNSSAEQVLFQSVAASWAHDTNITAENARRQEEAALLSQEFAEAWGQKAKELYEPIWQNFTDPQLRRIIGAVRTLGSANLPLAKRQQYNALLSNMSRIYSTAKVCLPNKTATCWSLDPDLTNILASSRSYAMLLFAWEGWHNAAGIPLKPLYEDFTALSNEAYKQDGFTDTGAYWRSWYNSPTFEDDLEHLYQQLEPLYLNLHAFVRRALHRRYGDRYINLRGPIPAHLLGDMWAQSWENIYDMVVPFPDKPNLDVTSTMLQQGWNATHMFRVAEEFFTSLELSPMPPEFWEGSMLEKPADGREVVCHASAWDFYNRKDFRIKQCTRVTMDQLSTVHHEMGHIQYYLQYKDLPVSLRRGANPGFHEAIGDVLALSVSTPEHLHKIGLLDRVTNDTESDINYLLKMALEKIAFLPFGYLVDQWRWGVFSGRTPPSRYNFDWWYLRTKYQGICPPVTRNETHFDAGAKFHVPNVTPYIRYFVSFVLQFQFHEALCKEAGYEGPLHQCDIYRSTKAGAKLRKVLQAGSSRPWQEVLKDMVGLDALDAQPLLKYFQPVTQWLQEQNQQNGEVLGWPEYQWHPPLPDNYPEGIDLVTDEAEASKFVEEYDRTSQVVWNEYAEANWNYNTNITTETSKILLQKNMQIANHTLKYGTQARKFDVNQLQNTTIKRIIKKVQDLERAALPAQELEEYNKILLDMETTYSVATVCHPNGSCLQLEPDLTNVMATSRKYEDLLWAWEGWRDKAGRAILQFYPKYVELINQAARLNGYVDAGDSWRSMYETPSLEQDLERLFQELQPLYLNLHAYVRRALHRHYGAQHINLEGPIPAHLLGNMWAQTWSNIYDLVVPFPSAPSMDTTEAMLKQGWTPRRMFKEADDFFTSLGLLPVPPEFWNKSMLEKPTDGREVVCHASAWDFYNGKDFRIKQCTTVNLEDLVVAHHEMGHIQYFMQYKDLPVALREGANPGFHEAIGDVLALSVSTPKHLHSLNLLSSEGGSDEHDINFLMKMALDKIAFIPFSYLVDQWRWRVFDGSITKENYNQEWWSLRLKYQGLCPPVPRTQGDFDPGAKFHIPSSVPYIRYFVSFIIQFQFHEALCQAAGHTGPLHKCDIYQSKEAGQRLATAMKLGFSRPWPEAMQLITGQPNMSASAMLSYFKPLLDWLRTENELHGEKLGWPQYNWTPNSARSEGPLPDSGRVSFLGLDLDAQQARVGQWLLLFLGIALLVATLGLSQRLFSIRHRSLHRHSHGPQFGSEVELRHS
Method: For determination of I50 values (concentration of peptide expressed in micrograms/ml. producing a 50% inhibition of angiotensin-converting enzyme), varying concentrations of the peptide of Example 19 are added to 13 × 100 mm. assay tubes containing a final volume of 0.25 ml. containing 100 mM. potassium phosphate buffer, pH 7.5, 30 mM. NaCl, and 0.3 mM. angiotensin I. Enzymatic reactions are initiated by addition of enzyme and incubation is carried out at 37°. The concentration of the peptide of Example 19 of the present invention which inhibits conversion of 50% of angiotensin I into angiotensin II is found to be 7 μg./ml as opposed to an I50 (μg/ml) of 0.9 for the parent peptide Pyr-Trp-Pro-Arg-Pro-Gln-Ile-Pro-Pro.

[2] = test system: angiotensin I induced pressor response; experiment: Inhibition of angiotensin I induced pressor response in anesthetized rats; type: in vivo; conditions: intravenous; atropinized anesthetized male rats infused with pentolinium; 0.10 μg/kg angiotensin I

Compound: CC[C@H](C)[C@H](NC(=O)[C@H](CCC(N)=O)NC(=O)[C@@H]1CCCN1C(=O)[C@H](CCCNC(=N)N)NC(=O)[C@@H]1CCCN1C(=O)[C@H](Cc1c[nH]c2ccccc12)NC(=O)[C@@H]1CCC(=O)N1)C(=O)N1CCC[C@H]1C(=O)N1CCC[C@H]1C(=O)OC [Example 19, Pyroglutamyl-tryptophyl-prolyl-arginyl-prolyl-glutaminyl-isoleucyl-prolyl-proline, methyl ester]
- IC50 [1]: 6.28 µM
- in vitro potency in inhibiting conversion of angiotensin I into angiotensin II, compared with parent control peptide ([1]; in vitro): substantially less potent than the parent control peptide
- in vivo activity (degree of inhibition of angiotensin I induced pressor response) [2]: roughly equivalent to that of the parent Control peptide

Compound: CC[C@H](C)[C@H](NC(=O)[C@H](CCC(N)=O)NC(=O)[C@@H]1CCCN1C(=O)[C@H](CCCNC(=N)N)NC(=O)[C@@H]1CCCN1C(=O)[C@H](Cc1c[nH]c2ccccc12)NC(=O)[C@@H]1CCC(=O)N1)C(=O)N1CCC[C@H]1C(=O)N1CCC[C@H]1C(=O)O [Pyr-Trp-Pro-Arg-Pro-Gln-Ile-Pro-Pro, Pyroglutamyl-tryptophyl-prolyl-arginyl-prolyl-glutaminyl-isoleucyl-prolyl-proline, reference compound]
- IC50 [1]: 0.817 µM
